What was measured:
[1] = tested on: T. cruzi epimastigotes (Tulahuen 2 strain); assay: In vitro activity on T. cruzi epimastigotes; format: cell-based; settings: Trypanosoma cruzi, 120 h, read-out: PGI25μM (%) (epimastigote): percentage of growth inhibition of T. cruzi epimastigote cells
[2] = tested on: T. cruzi; settings: cited from earlier work

Q: For `O=P(O)(O)C(O)(Cc1cccnc1)P(=O)(O)O` [NaRis, (1-hydroxy-1-phosphono-2-pyridin-3-yl-ethyl)phosphonate], which inhibition at 25 µM [1] is on record?
A: 19%

Q: And the “Parasitemia in infected mice” value [2]?
A: significantly reduces the parasitemia

Q: What about the “Toxicity in infected mice” value [2] of the same compound?
A: no toxicity

Q: And the Animal survival ([2]; infected mice)?
A: increases the animal survival

Reference: article PMC2949467 (Journal of inorganic biochemistry, 2010)
